Laboratory results: PMC9848300, “Discovery of novel enasidenib analogues targeting inhibition of mutant isocitrate dehydrogenase 2 as antileukaemic agents” (Journal of Enzyme Inhibition and Medicinal Chemistry, 2023)

Tests used:
UO-31 = assay: NCI 60 antitumor screening (single dose / five doses); type: cell-based; conditions: Homo sapiens
RPMI-8226 = assay: as above; type: cell-based; conditions: Homo sapiens
MOLT-4 = assay: as above; type: cell-based; conditions: Homo sapiens
HT29 = assay: as above; type: cell-based, human; conditions: Homo sapiens
HCT-15 = assay: as above; type: cell-based; conditions: Homo sapiens
SF-539 = assay: as above; type: cell-based; conditions: Homo sapiens
MDA-MB-231/ATCC = assay: as above; type: cell-based; conditions: Homo sapiens
HL-60(TB) = assay: as above; type: cell-based; conditions: Homo sapiens
A498 = assay: as above; type: cell-based; conditions: Homo sapiens
UACC-62 = assay: as above; type: cell-based; conditions: Homo sapiens
SNB-75 = assay: as above; type: cell-based; conditions: Homo sapiens
NCI-H23 = assay: NCI 60 antitumor screening (single dose); type: cell-based; conditions: Homo sapiens; NCI-H23 (non-small cell lung cancer), single dose 10 μM; read-out: Growth inhibition percentage (GI %)
Method in brief: (§1)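 At one concentration (10 μM), compounds are run in triplicate on 60 human cancer lines per the NCI method. Treated-cell growth is recorded as G%. Reported inhibition equals 100 − G%.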

MCF7 = assay: NCI 60 antitumor screening (single dose); type: cell-based; conditions: Homo sapiens; MCF7 (breast cancer), single dose 10 μM; read-out: Growth inhibition percentage (GI %)
Method in brief: (§2)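 NCI-60 one-dose screen. Dose: 10 μM. Lines: 60 human tumour lines, nine tissue types. Output: GI% = 100 − G%.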

M14 = assay: NCI 60 antitumor screening (single dose); type: cell-based; conditions: Homo sapiens; M14 (melanoma), single dose 10 μM; read-out: Growth inhibition percentage (GI %)
Method in brief: as §2

NCI-H322M = assay: NCI 60 antitumor screening (single dose); type: cell-based; conditions: Homo sapiens; NCI-H322M (non-small cell lung cancer), single dose 10 μM; read-out: Growth inhibition percentage (GI %)
Method in brief: as §2

SF-268 = assay: NCI 60 antitumor screening (single dose); type: cell-based; conditions: Homo sapiens; SF-268 (CNS cancer), single dose 10 μM; read-out: Growth inhibition percentage (GI %)
Method in brief: as §1

A549/ATCC = assay: NCI 60 antitumor screening (single dose); type: cell-based; conditions: Homo sapiens; A549/ATCC (non-small cell lung cancer), single dose 10 μM; read-out: Growth inhibition percentage (GI %)
Method in brief: as §2

CAKI-1 = assay: NCI 60 antitumor screening (single dose); type: cell-based; conditions: Homo sapiens; CAKI-1 (renal cancer), single dose 10 μM; read-out: Growth inhibition percentage (GI %)
Method in brief: as §2

NCI-H522 = assay: NCI 60 antitumor screening (single dose); type: cell-based; conditions: Homo sapiens; NCI-H522 (non-small cell lung cancer), single dose 10 μM; read-out: Growth inhibition percentage (GI %)
Method in brief: as §1

SW-620 = assay: NCI 60 antitumor screening (single dose / five doses); type: cell-based, human; conditions: Homo sapiens
[1] = system: 60 human subpanel cancer cell lines; assay: NCI 60 antitumor screening, mean over the panel (single dose); type: cell-based; conditions: mean over 60 cancer cell lines, single dose 10 μM
Method in brief: as §1

786-0 = assay: NCI 60 antitumor screening (single dose / five doses); type: cell-based; conditions: Homo sapiens
RXF 393 = assay: as above; type: cell-based; conditions: Homo sapiens
CCRF-CEM = assay: as above; type: cell-based; conditions: Homo sapiens
BT-549 = assay: as above; type: cell-based; conditions: Homo sapiens
MALME-3M = assay: as above; type: cell-based; conditions: Homo sapiens
MDA-MB-435 = assay: as above; type: cell-based; conditions: Homo sapiens
SK-MEL-5 = assay: as above; type: cell-based; conditions: Homo sapiens

CN(C)c1ccc(/C=N/Nc2nc(N/N=C/c3ccc(N(C)C)cc3)nc(N3CCCCC3)n2)cc1 [compound 7g, 4-[(1e)-(2-{4-[(E)-2-{[4-(dimethylamino)phenyl]methylidene}chydrazin-1-yl]-6-(piperidin-1-yl)-1,3,5-triazin-2-yl}hydrazin-1-ylidene)methyl]-N,N-dimethylaniline]
inhibition at 10 µM (UO-31; UO-31 (renal cancer), single dose 10 μM, read-out: Growth inhibition percentage (GI %)): 19.7% | GI50 (UO-31; UO-31, five doses (0.01–100 μM), read-out: GI50): 1.72 µM | inhibition at 10 µM (RPMI-8226; RPMI-8226 (leukaemia), single dose 10 μM, read-out: Growth inhibition percentage (GI %)): 67.4% | GI50 (RPMI-8226; RPMI-8226, five doses (0.01–100 μM), read-out: GI50): 1.92 µM | inhibition at 10 µM (MOLT-4; MOLT-4 (leukaemia), single dose 10 μM, read-out: Growth inhibition percentage (GI %)): 88% | GI50 (MOLT-4; MOLT-4, five doses (0.01–100 μM), read-out: GI50): 2.87 µM | GI50 (HT29; HT-29, HT29, five doses (0.01–100 μM), read-out: GI50): 1.76 µM | inhibition at 10 µM (HT29; HT-29, HT29 (colon cancer), single dose 10 μM, read-out: Growth inhibition percentage (GI %)): 105% | inhibition at 10 µM (HCT-15; HCT-15 (colon cancer), single dose 10 μM, read-out: Growth inhibition percentage (GI %)): 99.9% | GI50 (HCT-15; HCT-15, five doses (0.01–100 μM), read-out: GI50): 1.87 µM | inhibition at 10 µM (SF-539; SF-539 (CNS cancer), single dose 10 μM, read-out: Growth inhibition percentage (GI %)): 112% | GI50 (SF-539; SF-539, five doses (0.01–100 μM), read-out: GI50): 1.99 µM | GI50 (MDA-MB-231/ATCC; MDA-MB-231/ ATCC, five doses (0.01–100 μM), read-out: GI50): 1.8 µM | inhibition at 10 µM (MDA-MB-231/ATCC; MDA-MB-231/ATCC (breast cancer), single dose 10 μM, read-out: Growth inhibition percentage (GI %)): 31.4% | inhibition at 10 µM (HL-60(TB); HL-60(TB) (leukaemia), single dose 10 μM, read-out: Growth inhibition percentage (GI %)): 138% | GI50 (HL-60(TB); HL-60(TB), five doses (0.01–100 μM), read-out: GI50): 2.2 µM | inhibition at 10 µM (A498; A498 (renal cancer), single dose 10 μM, read-out: Growth inhibition percentage (GI %)): -15.1% | GI50 (A498; A498, five doses (0.01–100 μM), read-out: GI50): 1.58 µM | inhibition at 10 µM (UACC-62; UACC-62 (melanoma), single dose 10 μM, read-out: Growth inhibition percentage (GI %)): -0.61% | GI50 (UACC-62; UACC-62, five doses (0.01–100 μM), read-out: GI50): 1.84 µM | inhibition at 10 µM (SNB-75; SNB-75 (CNS cancer), single dose 10 μM, read-out: Growth inhibition percentage (GI %)): -1.39% | GI50 (SNB-75; SNB-75, five doses (0.01–100 μM), read-out: GI50): 2.8 µM | inhibition at 10 µM (NCI-H23): 3.27% | inhibition at 10 µM (MCF7): 68.9% | inhibition at 10 µM (M14): 27.2% | inhibition at 10 µM (NCI-H322M): -0.12% | inhibition at 10 µM (SF-268): -5.33% | inhibition at 10 µM (A549/ATCC): 21.6% | inhibition at 10 µM (CAKI-1): 10.1% | inhibition at 10 µM (NCI-H522): 3.84% | GI50 (SW-620; SW-620, SW-620, five doses (0.01–100 μM), read-out: GI50): 1.89 µM | inhibition at 10 µM (SW-620; SW-620 (colon cancer), single dose 10 μM, read-out: Growth inhibition percentage (GI %)): 35.8% | Mean GI % [1]: 35.10% | inhibition at 10 µM (786-0; 786-0, 786-0 (renal cancer), single dose 10 μM, read-out: Growth inhibition percentage (GI %)): 11.8% | GI50 (786-0; 786-0, five doses (0.01–100 μM), read-out: GI50): 1.69 µM | inhibition at 10 µM (RXF 393; RXF 393 (renal cancer), single dose 10 μM, read-out: Growth inhibition percentage (GI %)): 6.71% | GI50 (RXF 393; RXF 393, five doses (0.01–100 μM), read-out: GI50): 2.12 µM | inhibition at 10 µM (CCRF-CEM; CCRF-CEM (leukaemia), single dose 10 μM, read-out: Growth inhibition percentage (GI %)): 74.2% | GI50 (CCRF-CEM; CCRF-CEM, five doses (0.01–100 μM), read-out: GI50): 1.21 µM | inhibition at 10 µM (BT-549; BT-549 (breast cancer), single dose 10 μM, read-out: Growth inhibition percentage (GI %)): -10.6% | GI50 (BT-549; BT-549, five doses (0.01–100 μM), read-out: GI50): 1.55 µM | inhibition at 10 µM (MALME-3M; MALME-3M (melanoma), single dose 10 μM, read-out: Growth inhibition percentage (GI %)): 167% | GI50 (MALME-3M; MALME-3M, five doses (0.01–100 μM), read-out: GI50): 1.86 µM | inhibition at 10 µM (MDA-MB-435; MDA-MB-435 (melanoma), single dose 10 μM, read-out: Growth inhibition percentage (GI %)): 39.6% | GI50 (MDA-MB-435; MDA-MB-435, five doses (0.01–100 μM), read-out: GI50): 1.94 µM | inhibition at 10 µM (SK-MEL-5; SK-MEL-5 (melanoma), single dose 10 μM, read-out: Growth inhibition percentage (GI %)): 13.3% | GI50 (SK-MEL-5; SK-MEL-5, five doses (0.01–100 μM), read-out: GI50): 1.73 µM
